Test results: patent US20190203253A1, “METHODS OF IDENTIFYING AND TREATING CANCER PATIENTS WITH AN EPHB6 DEFICIENCY” (University of Saskatchewan, priority 2016, published 2019)

What was measured:
[1] = system: co-cultured MDA-pc3 and MDA-B6 cells; assay: Co-cultured colour-coded cells with MET inhibitor (flow cytometry); format: cell-based, human; conditions: 0.3 μM, 24, 32 and 48 hours, 1:1 co-culture (FIG. 11)
Method: FIG. 11. MET inhibition preferentially suppresses EPHB6-deficient cells. Hygro-selected combinations of MDA-B6-GFP and MDA-pc3-RFP (A and B) or MDA-B6-RFP and MDA-pc3-GFP (C and D) cells were seeded in 1:1 ratio and treated with 0.3 μM concentration of Met receptor inhibitor, ARQ197, or with a matching volume of DMSO, as a solvent control for 24, 32, and 48 hours. Treated cells were analyzed by flow cytometry. Bar graphs are based on the analyses of triplicates and represent a suppression of ARQ197-treated cell populations as a percentage relative to matching DMSO controls. (*) Statistical analyses: Student's t test, P<0.05 for indicated points. All analyses represent one of at least three independent experiments. The skilled person in the art will understand that the drawings, described herein, are for illustration purposes only. The drawings are not intended to limit the scope of the applicants' teachings in any way.
(§1) As mentioned above, a number of potential candidates that predominantly function in signal transduction (FIG. 2G), including DDR2, SRC, ROCK2 and MET (Table 1), were identified. Further testing with a MET inhibitor, ARQ197, was conducted to evaluate its SL properties. MDA-B6 and MDA-pc3 cells, as well as BT20-NS and BT20-shB6 cells, obtained using a method similar as described above in Example 1, were treated with increasing concentrations of ARQ197.

MDA-B6 and MDA-pc3 cells = assay: Cell survival (resazurin) with MET inhibitor, MDA-MB-231-derived cells; format: cell-based, human; conditions: increasing concentrations, 24 hours, vs MDA-B6 (FIG. 10A)
Method: (§2) FIG. 10. Analysis of EPHB6-MET SL interaction. A and B, MDA-B6 and MDA-pc3 (A) or BT2O-NS and BT20-shB6 (B) cells were treated for 24 hours with the indicated concentrations of MET inhibitor, ARQ197, or with matching concentrations of DMSO, as a control. Treated cells were stained with Resazurin for 2 h at 37° C. and cell survival was measured using a microplate reader. Data represent the analysis of triplicates and are shown as a percentage relative to matching DMSO controls. (*) Statistical analyses: Student's t test, P<0.05 for indicated points. All analyses represent one of at least three independent experiments.
as §1

[2] = system: BT20-NS and BT20-shB6 cells; assay: Cell survival (resazurin) with MET inhibitor, BT-20-derived cells; format: cell-based, human; conditions: increasing concentrations, 24 hours, vs BT20-NS (FIG. 10B)
Method: as §2, §1

SRC = SRC (Homo sapiens, UniProt P12931); assay: SRC inhibition in cells (anti-SRC immunoprecipitation, anti-phospho-SRC Western blot); format: cell-based; conditions: MDA-B6 cells, 20 μM, 40 minutes, 10% FBS (FIG. 9B)
Chain of SRC (P12931 whole entry): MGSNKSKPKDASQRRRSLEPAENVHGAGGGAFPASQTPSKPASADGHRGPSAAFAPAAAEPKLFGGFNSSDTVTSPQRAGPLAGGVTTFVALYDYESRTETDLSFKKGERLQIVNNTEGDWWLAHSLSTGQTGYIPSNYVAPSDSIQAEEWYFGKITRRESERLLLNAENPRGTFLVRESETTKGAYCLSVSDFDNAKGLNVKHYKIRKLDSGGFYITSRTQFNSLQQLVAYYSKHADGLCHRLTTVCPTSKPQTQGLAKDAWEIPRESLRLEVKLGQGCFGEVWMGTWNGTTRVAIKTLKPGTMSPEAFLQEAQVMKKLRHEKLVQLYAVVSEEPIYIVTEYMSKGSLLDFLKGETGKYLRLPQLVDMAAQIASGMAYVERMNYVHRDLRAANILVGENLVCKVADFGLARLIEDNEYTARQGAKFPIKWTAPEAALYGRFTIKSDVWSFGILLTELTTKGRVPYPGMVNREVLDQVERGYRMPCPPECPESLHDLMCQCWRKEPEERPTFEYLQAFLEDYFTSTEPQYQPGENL

[3] = system: BT-20 cells (EPHB6-targeting shRNA vs non-silencing shRNA); assay: Drug sensitivity assay (resazurin), SRC inhibitors, BT-20 cells with silenced EPHB6; format: cell-based, human; conditions: BT-20 with EPHB6-targeting shRNA vs non-silencing shRNA, 96 h (FIGS. 6A-6E)
Method: FIG. 6. SL relation between EPHB6 and SRC in BT-20 TNBC cells. A. Triple negative breast cancer cells, BT-20, were transduced with EPHB6-targeting shRNA (BT20-66-shRNA), or non-silencing shRNA (BT2O-NS). EPHB6 expression was analyzed by Western blotting with anti-EPHB6. Western blotting with anti-tubulin was used as a loading control. B. BT20-66-shRNA and BT2O-NS cells were cultured in 96-well plates with indicated concentrations of SU6656 or matching volumes of DMSO for 96 h. Cells were stained with resazurin and fluorescence was measured using a SpectraMax M5 plate reader to determine cell suppression. Five wells were analyzed per condition. […] C. […] Cells were stained with resazurin and fluorescence was measured using a SpectraMax M5 plate reader to determine cell suppression. Five wells were analyzed per condition. […] PI-stained cells were counted in at least 10 randomly captured frames. […] Stained cells were analyzed by flow cytometry and the FlowJo software. […]
MDA-MB-231 and BT-20 cell monolayers were incubated in 96-well plates for 72 h and 96 h, respectively, with indicated concentrations of KX2-391 or SU6656, or matching volumes of DMSO as a solvent control. Treated cells were stained using resazurin by following the manufacturer's instructions and fluorescence was measured using a SpectraMax M5 microplate reader.

[4] = system: MDA-pc3 and MDA-B6 cells (MDA-MB-231); assay: Drug sensitivity assay (resazurin), SRC inhibitors, MDA-MB-231-derived cells; format: cell-based, human; conditions: MDA-pc3 vs MDA-B6, increasing concentrations, 72 h, resazurin (FIG. 4A, 4B)
Method: FIG. 4. […] C. […] All experiments were performed at least three times.

SRC inhibition (phospho-SRC) (SRC)	SMILES	suppression of cell populations in co-culture [1]	cell survival of EPHB6-deficient MDA-pc3 cells (MDA-B6 and MDA-pc3 cells)	cell survival of BT20-shB6 cells [2]	cell suppression after silencing of EPHB6 expression [3]	cell suppression relative to DMSO control, EPHB6-deficient vs EPHB6-expressing cells [4]
	O=C1NC(=O)[C@@H](c2cn3c4c(cccc24)CCC3)[C@@H]1c1c[nH]c2ccccc12 [ARQ197]	preferentially suppressed EPPBH6-deficient MDA-B6 cells	decreased cell survival compared to MDA-B6 cells	decreased cell survival compared to BT-20 cells transduced with non-silencing shRNA		
efficiently inhibited	CN(C)S(=O)(=O)c1ccc2c(c1)/C(=C/c1cc3c([nH]1)CCCC3)C(=O)N2 [SU6656]				strongly increased their suppression	preferentially suppressed EPHB6-deficient MDA-pc3 cells
